Assay [1] is described as follows: Inhibition of recombinant GGT1 (unknown origin) using GGPP as substrate preincubated for 5 mins followed by protein addition measured over 20 mins by fluorescence assay.
Assay in assay [2]: as above
The source holds these as a separate data set.

For the compound `CSCCc1c(-c2cccnc2)nn(-c2ccc(Cl)c(Cl)c2)c1OCCCNC(=O)[C@H](Cc1ccccc1)NC(C)=O`, the IC50 in assay [1] came to 22.9 µM.

In the case of `COc1ccc(C[C@H](NS(C)(=O)=O)C(=O)NCCCOc2c(CCSC)c(-c3cccnc3)nn2-c2ccc(Cl)c(Cl)c2)cc1`, the IC50 in assay [2] was determined as 9.9 µM.

On to `COc1ccc(C[C@H](NC(=O)CCCOc2c(CCSC)c(-c3cccnc3)nn2-c2ccc(Cl)c(Cl)c2)C(N)=O)cc1`, for which the IC50 in assay [2] came out at 3.1 µM.

`CSCCc1c(-c2cccnc2)nn(-c2ccc(Cl)c(Cl)c2)c1OCCCNC(=O)[C@H](Cc1cccnc1)NC(C)=O`: the IC50 in assay [2] is above 50 µM.

As for `CSCCc1c(-c2cccnc2)nn(-c2ccc(Cl)c(Cl)c2)c1OCCCNC(=O)[C@H](Cc1ccccc1)NS(C)(=O)=O`, in assay [2], the IC50 came out at 31.9 µM.

Turning to `CSCCc1c(-c2cccnc2)nn(-c2ccc(Cl)c(Cl)c2)c1OCCCNC(=O)[C@H](Cc1ccc(F)cc1)NS(C)(=O)=O`, the IC50 in assay [2] was 19.7 µM.

As for `CSCCc1c(-c2cccnc2)nn(-c2ccc(Cl)c(Cl)c2)c1OCCCNC(=O)[C@H](Cc1cccnc1)NS(C)(=O)=O`, the IC50 in assay [2] was above 50 µM.

As to `CSCCc1c(-c2cccnc2)nn(-c2ccc(Cl)c(Cl)c2)c1OCCCC(=O)N[C@@H](Cc1ccncc1)C(N)=O`, the IC50 in assay [2] came to 7.8 µM.

Consider `COc1ccc(C[C@H](NC(C)=O)C(=O)NCCCOc2c(CCSC)c(-c3cccnc3)nn2-c2ccc(Cl)c(Cl)c2)cc1`, for which, in assay [2], the IC50 amounted to 34.8 µM.

Turning to `CSCCc1c(-c2cccnc2)nn(-c2ccc(Cl)c(Cl)c2)c1OCCCC(=O)N[C@@H](Cc1ccc(F)cc1)C(N)=O`, in assay [2], the IC50 came to 2.4 µM.

As for `CSCCc1c(-c2cccnc2)nn(-c2ccc(Cl)c(Cl)c2)c1OCCCC(=O)N[C@@H](Cc1cccnc1)C(N)=O`, the IC50 in assay [2] stood at 11.6 µM.

As to `CSCCc1c(-c2cccnc2)nn(-c2ccc(Cl)c(Cl)c2)c1OCCCC(=O)N[C@@H](Cc1ccccc1)C(N)=O` [N-[(S)-1-carbamoyl-2-phenylethyl]-4-[2-(3,4-di-chlorophenyl)-4-(2-methylsulfanylethyl)-5-pyridin-3-yl-2-H-pyrazol-3-yloxy]butyramide], the IC50 in assay [2] came out at 3.3 µM.

For orientation: IC50 means the point on the concentration scale where inhibition reaches its midpoint.
